Measurements: paper PMC10482691, “LTP induction by structural rather than enzymatic functions of CaMKII” (Nature, 2023)
Values joined by “and” are separate entries in the source; they are usually repeats but may differ in a detail not shown here. Equal values may be shown once.

What was measured:
[1] = system: GFP–paCaMKII T286A in hippocampal neurons; test: paCaMKII T286A photoactivation: dendritic spine growth (sLTP); assay type: cell-based
[2] = system: GFP–paCaMKII F89G in hippocampal neurons; test: paCaMKII F89G photoactivation: dendritic spine growth (sLTP); assay type: cell-based

For `NCCNc1cccc(-c2ccnc3[nH]c4ccccc4c23)c1` [AS283], the “spine growth after photoactivation of paCaMKII T286A” value ([1]; AS283 10 μM) was “spine growth” and the “dendritic spine growth after photoactivation (sheet 6c)” value ([1]; paCaMKII T286A + AS283, individual neurons) was 17.1219 and 31.801 and 10.2332 and 47.3616 and 15.5579 and 21.0974 and 9.7214 and 4.0121 and 26.179.

In the case of `CC(C)(C)n1nc(Cc2cccc3ccccc23)c2c(N)ncnc21` [NM-PP1], the “spine growth after photoactivation of paCaMKII F89G” value ([2]; NM-PP1 10 μM) is reported as “spine growth” and the “dendritic spine growth after photoactivation (sheet 6f)” value ([2]; paCaMKII F89G + NMPP1, individual neurons) is reported as 172.556 and 35.7596 and 20.47 and 19.9369 and 44.1548 and -7.983 and 10.7769 and 28.3493 and 0.9564 and -9.357 and -3.692 and 75.8167 and 167.851 and -2.441 and -1.61 and -17.673 and 155.504 and 81.1061.
